Laboratory results: patent US20140094482A1, “BENZAZOCINE-RING COMPOUND INHIBITION OF TAU HYPERPHOSPHORYLATION” (priority 2012, published 2014)
“And” between values parts separate entries of the source, which are not always exact repeats. Identical values can stand only once. “Also recorded” adds a separate entry of the source. Like-named read-outs stand apart in the source and are kept apart here.

Columns and labels:
[1] = biological target: FLNA pentapeptide of SEQ ID NO: 1 (Bn-VAKGL) (Homo sapiens, UniProt P21333); experiment: FITC-NLX-based FLNA screening assay (inhibition of FITC-naloxone binding to Bn-VAKGL); settings: for inhibition at 0.01 µM: read-out: Percent inhibition of FITC-NLX binding, 0.01 μM compound; for inhibition at 0.1 µM: read-out: Percent inhibition of FITC-NLX binding, 0.1 μM compound
kappa-opioid receptor = kappa-opioid receptor (Homo sapiens, UniProt P41145); settings: cited from earlier work
Chain of kappa-opioid receptor (P41145 whole entry): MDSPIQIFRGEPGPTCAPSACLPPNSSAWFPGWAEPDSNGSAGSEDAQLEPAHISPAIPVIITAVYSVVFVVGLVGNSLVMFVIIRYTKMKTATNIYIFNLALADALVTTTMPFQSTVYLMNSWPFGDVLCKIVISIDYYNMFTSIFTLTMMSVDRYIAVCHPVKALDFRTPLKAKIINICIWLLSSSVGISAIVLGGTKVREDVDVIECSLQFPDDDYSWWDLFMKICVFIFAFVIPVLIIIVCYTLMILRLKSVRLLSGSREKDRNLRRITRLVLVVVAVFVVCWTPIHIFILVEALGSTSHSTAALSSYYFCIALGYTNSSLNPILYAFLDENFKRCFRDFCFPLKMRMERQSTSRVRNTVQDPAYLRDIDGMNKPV

α7nAChR-FLNA complex = biological target: T1, α7nAChR-FLNA complex (Rattus norvegicus, UniProt A0A8I5ZV49); experiment: Aβ42-induced α7nAChR-FLNA association in frontal cortical synaptosomes (anti-FLNA immunoprecipitation, Western blot); assay type: biochemical; settings: compound simultaneous with 100 nM Aβ42; vs Aβ42 alone
T1 construct: from tissue; host or cells: rat frontal cortex synaptosomes
Description: FIG. 2, in two panels as FIG. 2A and FIG. 2B, illustrates high-affinity FLNA-binding compounds reduce α7nAChR-FLNA association as shown by Western blots. Frontal cortical synaptosomes from 2-month-old rats (n=4) were treated with 0.1 or 1 nM concentrations of potential FLNA-binding compounds [A0040, A0068, B0055, C0137M, C0138M and (+)-naloxone (+NLX)] either simultaneously (Sim) with or 10 minutes prior (10′ pr) to Aβ42 and were analyzed for their α7nAChR-FLNA complex contents. The α7nAChR-FLNA complexes in the solubilized synaptosomes were immunoprecipitated with immobilized anti-FLNA and the α7nAChR and FLNA levels in the anti-FLNA immunoprecipitates determined by Western blotting FIG. 2A and quantified by densitometry (FIG. 2B). n=3. Data are means±SEM. […] vs. Aβ42 alone. Data for 0.1 nM simultaneous admixture are shown in diagonal hatching; data from 1 nM simultaneous admixture are shown in cross-hatching; data from 0.1 nM 10 minutes prior to Aβ42 are shown in horizontal hatching; and data from 1 nM admixture 10 minutes prior Aβ42 are shown with vertical hatching. The letter designation “M” that accompanies many of the “C-series” compounds is omitted from FIG. 2, the remaining figures and most discussions of the figures and compounds hereinafter for ease in expression. […]

ERK2 = experiment: Aβ42-induced ERK2 activation (pERK2) in synaptosomes; assay type: biochemical, rat; settings: 0.1 and 1 nM, simultaneous treatment
Description: FIG. 3, in two panels as FIG. 3A and FIG. 3B, illustrates that FLNA-binding compounds reduce Aβ-induced α7nAChR-mediated ERK2 signaling. In the same treated synaptosomes used in FIG. 2, levels of phosphorylated (activated) ERK2 (pERK2) were measured in immunoprecipitates of ERK2. Aβ42 strongly activated extracellular signal-regulated kinase 2 [ERK2; also known as mitogen-activated protein kinase 1 (MAPK1)], and all compounds studied reduced this activation with 10-minutes of pretreatment. […] Immunoprecipitates were determined by Western blotting (FIG. 3A) and quantified by densitometry (FIG. 3B). n=3. Data are means±SEM. […] vs. Aβ42 alone. Hatching is as in FIG. 2.
(§1) Synaptosomes were exposed to 100 nM Aβ42 for 30 minutes, and with […] compounds added either simultaneously or 10 minutes earlier. Controls were a vehicle (no Aβ42) and an Aβ42 alone condition.
To assess Aβ42 signaling via α7nAChR after compound administration, levels of phosphorylated ERK2 were measured in the same synaptosome preparations treated with Aβ42 and the above compounds using Western blots (FIG. 3A). Phosphorylation of ERK2 indicates its activation, which leads to tau hyperphosphorylation. Compared to the control condition, Aβ42 strongly activates ERK2. This activation is suppressed by all six compounds at 0.1 and 1 nM with 10 minute pretreatment, and also by Compound B0055 and (+)NLX with simultaneous treatment (FIG. 3B).

delta-opioid receptor = delta-opioid receptor (Homo sapiens, UniProt P41143); settings: cited from earlier work
Chain of delta-opioid receptor (P41143 whole entry): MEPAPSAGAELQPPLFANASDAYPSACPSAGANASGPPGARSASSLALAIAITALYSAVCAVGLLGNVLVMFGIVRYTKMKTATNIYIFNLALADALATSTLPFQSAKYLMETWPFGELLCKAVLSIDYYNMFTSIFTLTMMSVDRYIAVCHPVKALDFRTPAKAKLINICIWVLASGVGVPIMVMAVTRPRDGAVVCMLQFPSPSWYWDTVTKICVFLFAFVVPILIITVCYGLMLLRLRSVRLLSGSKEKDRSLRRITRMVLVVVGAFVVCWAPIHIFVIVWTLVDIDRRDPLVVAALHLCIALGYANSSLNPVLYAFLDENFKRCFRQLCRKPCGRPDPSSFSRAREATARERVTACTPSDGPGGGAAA

FLNA [2] = biological target: T2, FLNA (Homo sapiens, UniProt P21333); experiment: Inhibition of [3H]NLX binding to membranes from FLNA-expressing A7 cells; settings: for IC50: [3H]NLX binding, A7 cell membranes, Example 3, six studies, two-site fit
T2 construct: rather than the full protein from a cell membrane preparation; host or cells: A7 cells (membranes)
T2 sequence (P21333 whole entry): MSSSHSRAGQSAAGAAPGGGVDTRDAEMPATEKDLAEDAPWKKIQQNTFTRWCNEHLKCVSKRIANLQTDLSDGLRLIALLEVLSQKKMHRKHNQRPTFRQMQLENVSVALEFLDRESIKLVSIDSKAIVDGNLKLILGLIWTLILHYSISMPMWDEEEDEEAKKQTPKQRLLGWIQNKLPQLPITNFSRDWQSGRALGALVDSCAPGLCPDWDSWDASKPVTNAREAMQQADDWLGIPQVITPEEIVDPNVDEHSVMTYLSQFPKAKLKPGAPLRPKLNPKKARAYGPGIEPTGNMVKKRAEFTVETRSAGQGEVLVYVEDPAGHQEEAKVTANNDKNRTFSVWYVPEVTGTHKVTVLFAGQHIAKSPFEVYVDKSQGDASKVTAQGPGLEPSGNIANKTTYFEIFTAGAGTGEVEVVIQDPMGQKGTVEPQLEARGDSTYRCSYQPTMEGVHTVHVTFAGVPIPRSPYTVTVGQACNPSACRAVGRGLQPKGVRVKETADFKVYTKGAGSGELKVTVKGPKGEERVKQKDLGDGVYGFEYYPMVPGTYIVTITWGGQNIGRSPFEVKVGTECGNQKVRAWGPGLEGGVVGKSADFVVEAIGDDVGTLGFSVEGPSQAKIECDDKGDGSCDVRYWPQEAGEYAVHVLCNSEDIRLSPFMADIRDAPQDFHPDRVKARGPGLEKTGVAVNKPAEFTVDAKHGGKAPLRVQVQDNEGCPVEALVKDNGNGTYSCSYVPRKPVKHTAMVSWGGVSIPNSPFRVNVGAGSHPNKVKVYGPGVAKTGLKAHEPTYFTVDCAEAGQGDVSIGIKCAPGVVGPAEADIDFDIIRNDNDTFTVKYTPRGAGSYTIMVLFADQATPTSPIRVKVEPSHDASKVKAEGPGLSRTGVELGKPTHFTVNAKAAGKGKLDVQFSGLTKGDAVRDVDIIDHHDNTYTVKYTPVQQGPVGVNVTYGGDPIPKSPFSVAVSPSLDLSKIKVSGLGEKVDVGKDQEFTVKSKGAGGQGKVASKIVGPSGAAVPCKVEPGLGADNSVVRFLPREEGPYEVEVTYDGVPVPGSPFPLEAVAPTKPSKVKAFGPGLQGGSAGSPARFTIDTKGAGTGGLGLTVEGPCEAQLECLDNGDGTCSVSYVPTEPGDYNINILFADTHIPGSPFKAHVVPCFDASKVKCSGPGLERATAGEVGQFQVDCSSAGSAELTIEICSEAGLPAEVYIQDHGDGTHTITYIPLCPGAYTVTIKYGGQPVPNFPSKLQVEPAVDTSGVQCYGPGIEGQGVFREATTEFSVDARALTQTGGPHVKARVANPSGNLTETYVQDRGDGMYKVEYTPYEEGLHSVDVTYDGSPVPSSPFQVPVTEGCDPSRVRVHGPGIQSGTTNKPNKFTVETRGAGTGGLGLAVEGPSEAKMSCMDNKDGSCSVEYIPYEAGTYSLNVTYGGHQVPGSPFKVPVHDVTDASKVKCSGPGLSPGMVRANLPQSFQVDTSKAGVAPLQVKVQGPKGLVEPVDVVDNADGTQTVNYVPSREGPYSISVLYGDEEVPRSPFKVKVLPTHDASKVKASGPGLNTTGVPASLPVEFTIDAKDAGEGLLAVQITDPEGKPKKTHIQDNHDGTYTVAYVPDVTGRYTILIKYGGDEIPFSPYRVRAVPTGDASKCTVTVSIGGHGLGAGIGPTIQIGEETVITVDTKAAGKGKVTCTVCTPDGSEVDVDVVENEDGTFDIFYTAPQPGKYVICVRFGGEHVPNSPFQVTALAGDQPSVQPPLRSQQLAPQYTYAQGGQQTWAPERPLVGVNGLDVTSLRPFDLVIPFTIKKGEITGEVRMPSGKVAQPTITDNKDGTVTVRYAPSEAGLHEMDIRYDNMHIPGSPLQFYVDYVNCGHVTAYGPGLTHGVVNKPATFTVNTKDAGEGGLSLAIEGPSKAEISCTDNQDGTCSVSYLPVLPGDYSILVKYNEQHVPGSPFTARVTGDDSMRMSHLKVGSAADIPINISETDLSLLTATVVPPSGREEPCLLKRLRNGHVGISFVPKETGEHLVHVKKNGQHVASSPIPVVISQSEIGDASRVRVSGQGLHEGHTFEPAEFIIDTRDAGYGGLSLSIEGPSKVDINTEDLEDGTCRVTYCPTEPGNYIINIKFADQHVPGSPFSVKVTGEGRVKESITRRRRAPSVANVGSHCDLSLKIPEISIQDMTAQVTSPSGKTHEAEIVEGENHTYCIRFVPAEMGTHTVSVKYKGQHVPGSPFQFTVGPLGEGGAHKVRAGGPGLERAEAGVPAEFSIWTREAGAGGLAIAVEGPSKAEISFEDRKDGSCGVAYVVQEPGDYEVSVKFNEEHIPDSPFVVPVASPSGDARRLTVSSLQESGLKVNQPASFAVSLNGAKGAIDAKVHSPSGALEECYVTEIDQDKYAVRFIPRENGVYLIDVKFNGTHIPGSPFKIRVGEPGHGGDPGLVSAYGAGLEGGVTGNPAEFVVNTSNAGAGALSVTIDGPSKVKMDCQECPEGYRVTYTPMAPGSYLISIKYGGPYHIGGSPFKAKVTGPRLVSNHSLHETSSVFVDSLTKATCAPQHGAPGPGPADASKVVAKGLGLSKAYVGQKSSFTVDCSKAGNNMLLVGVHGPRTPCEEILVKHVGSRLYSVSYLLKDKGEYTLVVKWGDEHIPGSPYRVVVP

FLNA [3] = biological target: T2, FLNA; experiment: Inhibition of FITC-NLX binding to FLNA in membranes of A7 cells; settings: for IC50: FITC-NLX in place of [3H]NLX
From the text: 3(2):e1554 (2008), FIG. 3. FIG. 1B is a similar plot obtained from the use of FITC-labeled NLX (FITC-NLX) in place of the radio-labeled material.

FLNA [4] = biological target: T2, FLNA; settings: [3H]NLX binding, A7 cell membranes, Wang et al. 2008/2009, cited from earlier work
mu opioid receptor (MOR) = mu opioid receptor (MOR) (Homo sapiens, UniProt P35372); settings: cited from earlier work
Chain of mu opioid receptor (MOR) (P35372 whole entry, species assumed): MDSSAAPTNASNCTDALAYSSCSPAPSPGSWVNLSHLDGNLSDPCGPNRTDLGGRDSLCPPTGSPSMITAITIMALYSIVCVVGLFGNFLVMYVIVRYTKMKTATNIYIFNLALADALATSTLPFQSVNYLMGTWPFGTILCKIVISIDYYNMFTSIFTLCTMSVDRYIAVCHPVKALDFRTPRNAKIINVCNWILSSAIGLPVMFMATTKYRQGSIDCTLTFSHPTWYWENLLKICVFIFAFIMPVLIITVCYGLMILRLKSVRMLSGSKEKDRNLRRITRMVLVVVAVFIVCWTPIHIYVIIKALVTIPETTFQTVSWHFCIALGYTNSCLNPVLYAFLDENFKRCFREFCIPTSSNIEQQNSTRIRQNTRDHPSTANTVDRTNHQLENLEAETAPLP

tau protein = experiment: Aβ42-induced tau phosphorylation at S202, T231 and T181 in synaptosomes; assay type: biochemical, rat
Description: FIG. 4, in four panels as FIG. 4A, FIG. 4B, FIG. 4C and FIG. 4D, illustrate that FLNA-binding compounds reduce tau phosphorylation at all three hyperphosphorylation sites. […] The three phosphoepitopes of tau were detected in immunoprecipitates using specific antibodies in Western blots. […] Immunoprecipitates were determined by Western blotting (FIG. 4A) and quantified by densitometry (FIG. 4B, FIG. 4C and FIG. 4D). Data are means±SEM. […] vs. Aβ42 alone. Hatching is as in FIG. 2.
as §1
Next assessed was whether the FLNA-binding compounds also decrease hyperphosphorylation of tau, a downstream effect of Aβ42 binding to α7nAChR and ERK2 activation. The three primary phosphorylation sites on tau protein were examined for their phosphorylation levels compared to total tau protein content using Western blots (FIG. 4A). Tau, phosphorylated at these three sites, is a constituent of NFTs.

[5] = read-out: Percent Inhibition, 1 μM compound (n = 5)
[6] = read-out: Percent inhibition of FITC-NLX binding, 1 μM compound, 10 nM FITC-NLX
[7] = read-out: inhibition of binding of FITC-labeled NLX, 1 μM compound, 10 nM FITC-NLX, n=5, FIG. 11
[8] = read-out: inhibition of binding of FITC-labeled NLX

Compound: Oc1ccc2c3c1O[C@H]1[C@H](O)CC[C@@]4(O)[C@@H](C2)N(CC2CC2)CC[C@]314 [6-β-Naltrexol]
- Percent Inhibition ([1]; 1 µM): 50.5%
- Percent Inhibition ([1]; 10 µM): 64.8%

Compound: Oc1ccc2c(c1)[C@@]13CCCC[C@@]1(O)[C@@H](C2)N(CC1CCC1)CC3 [Butorphanol]
- RECEPTOR KAPPA: antagonism/agonism and relative potency (kappa-opioid receptor): +++

Compound: COc1c2c(cc3c1C(CC(=O)Cc1ccccc1F)[N+](C)(C)CC3)OCO2 (stereo not drawn) [Compound B0055]
- α7nAChR-FLNA association (α7nAChR-FLNA complex): markedly reduced
- Aβ42-induced ERK2 activation (pERK2) (ERK2): suppressed; also recorded: reduced the activation at both concentrations

Compound: CN1CC[C@]23CCCC[C@H]2[C@H]1Cc1ccc(O)cc13 [Levorphanol]
- inhibition at 1 µM ([1]; read-out: Percent Inhibition): 46.8%
- inhibition at 10 µM ([1]; read-out: Percent Inhibition): 69.4%

Compound: Oc1ccc2c3c1O[C@H]1[C@@H](O)CC[C@@]4(O)[C@@H](C2)N(CC2CCC2)CC[C@]314 [Nalbuphine]
- binding to the FLNA pentapeptide of SEQ ID NO: 1 (in words) [1]: bind well
- inhibition at 1 µM ([1]; read-out: Percent Inhibition): 65.4%
- inhibition at 10 µM ([1]; read-out: Percent Inhibition): 76.2%

Compound: C=C1CC[C@@]2(O)[C@H]3Cc4ccc(O)c5c4[C@@]2(CCN3CC2CC2)[C@H]1O5 [Nalmefene]
- inhibition at 1 µM ([1]; read-out: Percent Inhibition): 44.5%
- inhibition at 10 µM ([1]; read-out: Percent Inhibition): 66.9%

Compound: C=CCN1CC[C@]23c4c5ccc(O)c4O[C@H]2[C@@H](O)C=C[C@H]3[C@H]1C5 [Nalorphine]
- binding to the FLNA pentapeptide of SEQ ID NO: 1 (in words) [1]: bind well
- inhibition at 1 µM ([1]; read-out: Percent Inhibition): 58.7%
- inhibition at 10 µM ([1]; read-out: Percent Inhibition): 60.2%
- RECEPTOR KAPPA: antagonism/agonism and relative potency (kappa-opioid receptor): +

Compound: C=CCN1CC[C@]23c4c5ccc(O)c4O[C@H]2/C(=N/NC(=O)c2ccccc2)CC[C@@]3(O)[C@H]1C5 [Naloxone Benzoylhydrazone]
- RECEPTOR DELTA: antagonism/agonism and relative potency (delta-opioid receptor): −
- RECEPTOR KAPPA: antagonism/agonism and relative potency (kappa-opioid receptor): −

Compound: C=CCN1CC[C@]23c4c5ccc(O)c4O[C@H]2C(=O)CC[C@@]3(O)[C@H]1C5 [Naloxone]
- binding to the FLNA pentapeptide of SEQ ID NO: 1 (in words) [1]: bind well
- Percent inhibition of FITC-NLX binding ([1]; 0.01 μM compound, 10 nM FITC-NLX, listed as (−)NLX): 41.9% and 34.3% and 41.4% and 42.50%
- Percent inhibition of FITC-NLX binding ([1]; 0.1 μM compound, 10 nM FITC-NLX, listed as (−)NLX): 48.6% and 38.5% and 47.2% and 54.20%
- Percent inhibition of FITC-NLX binding ([1]; 1 μM compound, 10 nM FITC-NLX, listed as (−)NLX): 51.5% and 45.8% and 50.2% and 56.20%
- inhibition at 1 µM [1, 5]: 71.6%
- inhibition at 0.01 µM ([1]; 10 nM FITC-NLX): 43%
- inhibition at 0.1 µM ([1]; 10 nM FITC-NLX): 50.3%
- inhibition at 1 µM [1, 6]: 53.9%
- inhibition at 1 µM [1, 7]: ~75%

Compound: O=C1CC[C@@]2(O)[C@H]3Cc4ccc(O)c5c4[C@@]2(CCN3CC2CC2)[C@H]1O5 [Naltrexone]
- binding to the FLNA pentapeptide of SEQ ID NO: 1 (in words) [1]: bind well
- Percent inhibition of FITC-NLX binding ([1]; 0.01 μM compound, 10 nM FITC-NLX, listed as NTX): 37.9% and 34.8% and 38.5%
- Percent inhibition of FITC-NLX binding ([1]; 0.1 μM compound, 10 nM FITC-NLX, listed as NTX): 46.5% and 45.2% and 43.3%
- Percent inhibition of FITC-NLX binding ([1]; 1 μM compound, 10 nM FITC-NLX, listed as NTX): 55.4% and 51.6% and 48.0%
- inhibition at 1 µM [1, 5]: 76.4%
- inhibition at 0.01 µM ([1]; 10 nM FITC-NLX): 40.2%
- inhibition at 0.1 µM ([1]; 10 nM FITC-NLX): 47.4%
- inhibition at 1 µM [1, 6]: 49.1%
- inhibition at 1 µM [1, 7]: ~75%
- IC50 (FLNA [2]; IC50-L (low)): 834 pM
- IC50 (FLNA [2]; read-out: IC50-H (high)): 3.94 pM
- affinity difference between the high- and low-affinity binding sites (FLNA [2]; [3H]NLX label): about 200 fold
- IC50 (FLNA [3]; read-out: IC50-H (high)): 1.63 pM
- IC50 (FLNA [3]; read-out: IC50-L (low)): 18800 pM
- affinity difference between the high- and low-affinity binding sites (FLNA [3]; FITC-NLX label): ~12.000 fold
- IC50 (FLNA [4]; read-out: IC50-H (high affinity site)): 3.94 pM
- IC50 (FLNA [4]; read-out: IC50-L (lower affinity site)): 834 pM

Compound: Oc1ccc2c3c1O[C@H]1c4[nH]c5ccccc5c4C[C@@]4(O)[C@@H](C2)N(CC2CC2)CC[C@]314 [Naltrindole]
- inhibition at 1 µM ([1]; read-out: Percent Inhibition): 41%
- inhibition at 10 µM ([1]; read-out: Percent Inhibition): 65%
- RECEPTOR MU: antagonism/agonism and relative potency (mu opioid receptor (MOR)): −
- RECEPTOR KAPPA: antagonism/agonism and relative potency (kappa-opioid receptor): −

Compound: CN1CC[C@]23c4c5ccc(O)c4O[C@H]2[C@@H](O)C=C[C@H]3[C@H]1C5 [morphine]
- binding to the FLNA pentapeptide of SEQ ID NO: 1 (in words) [1]: do not bind well
- inhibition at 10 µM [1, 8]: 25 to 50%

Compound: Oc1ccc2c3c1O[C@H]1c4[nH]c5c(c4C[C@@]4(O)C(C2)N(CC2CC2)CC[C@]314)C[C@@]1(O)[C@H]2Cc3ccc(O)c4c3[C@@]1(CCN2CC1CC1)[C@H]5O4 [nor-Binaltrophimine]
- RECEPTOR DELTA: antagonism/agonism and relative potency (delta-opioid receptor): −

Compound: COc1ccc2c3c1O[C@H]1C(=O)CC[C@@]4(O)[C@@H](C2)N(C)CC[C@]314 [oxycodone]
- binding to the FLNA pentapeptide of SEQ ID NO: 1 (in words) [1]: do not bind well
- inhibition at 10 µM [1, 8]: 25 to 50%

Compound: COC(=O)/C=C/C(=O)N[C@@H]1CC[C@@]2(O)[C@H]3Cc4ccc(O)c5c4[C@@]2(CCN3CC2CC2)[C@H]1O5 [β-Funaltrexamine]
- Percent Inhibition ([1]; 1 µM): 49.8%
- Percent Inhibition ([1]; 10 µM): 69.4%

Compound: (+)-naloxone [(+)NLX]
- α7nAChR-FLNA association (α7nAChR-FLNA complex): markedly reduced
- Aβ42-induced ERK2 activation (pERK2) (ERK2): suppressed
- Aβ42-induced ERK2 activation (pERK2) (ERK2; listed as (+)-naloxone): reduced the activation at both concentrations
- Aβ42-induced hyperphosphorylation of tau at all three sites (tau protein; FIG. 4D, timing not specified): particularly decreased
- Aβ42-induced tau phosphorylation at S202, T231 and T181 (tau protein; simultaneous administration, both concentrations): reduced tau phosphorylation
